In patent US11802120B2, “Fused cyclic urea derivatives as CRHR2 antagonist” (RaQualia Pharma Inc., priority 2018, dated 2023):

target: T1, human CRHR2-alpha (Homo sapiens, UniProt Q13324); test: cAMP functional assay for human CRHR2 (LANCE Ultra cAMP, TR-FRET); format: cell-based; conditions: CHO-K1 cells expressing human CRHR2-alpha, agonist human urocortin2 at EC80, cAMP; read-out: IC50 against CRHR2
T1 sequence (Q13324 1-411): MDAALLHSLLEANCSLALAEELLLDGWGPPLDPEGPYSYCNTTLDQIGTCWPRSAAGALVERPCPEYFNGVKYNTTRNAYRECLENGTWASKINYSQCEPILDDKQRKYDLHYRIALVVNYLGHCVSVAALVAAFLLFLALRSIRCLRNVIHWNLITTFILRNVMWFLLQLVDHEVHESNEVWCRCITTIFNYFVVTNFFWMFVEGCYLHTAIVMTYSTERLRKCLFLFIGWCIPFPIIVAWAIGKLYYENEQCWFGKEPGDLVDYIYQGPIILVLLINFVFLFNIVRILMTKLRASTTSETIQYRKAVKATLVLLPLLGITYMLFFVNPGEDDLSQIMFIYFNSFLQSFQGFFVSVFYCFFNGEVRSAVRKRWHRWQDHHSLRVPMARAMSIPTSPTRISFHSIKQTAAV
In short: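 Antagonism measured in CHO-K1 cells stably expressing the receptor, serum-starved 7 h then cryopreserved. Thawed cells in HBSS buffer with 0.1% BSA, 0.5 mM IBMX, 5 mM Hepes pH 7.4 were preincubated with compound 30 min at 25° C, then stimulated 30 min with EC80 agonist: urocortin2 for CRHR2, CRF for CRHR1.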

| Compound | IC50 [nM] |
| --- | --- |
| COc1ccc(-n2c(=O)n(C[C@H]3CC[C@H](NC(=O)c4cc(Cl)ccc4C)CC3)c3ccccc32)cn1 [Example 223, 5-chloro-N-((1r,4r)-4-((3-(6-methoxypyridin-3-yl)-2-oxo-2,3-dihydro-1H-benzo[d]imidazol-1-yl)methyl)cyclo-hexyl)-2-methylbenzamide] | < 300 |
| O=C(N[C@H]1CC[C@H](Cn2c(=O)n(Cc3ccccn3)c3ccccc32)CC1)c1cc(Cl)cnc1C(F)(F)F [Example 282, 5-chloro-N-((1r,4r)-4-((2-oxo-3-(pyridin-2-ylmethyl)-2,3-dihydro-1H-benzo[d]imidazol-1-yl)methyl)cyclohexyl)-2-(trifluoromethyl)nicotinamide] | < 300 |
| O=C(NCCF)c1ccc(-n2c(=O)n(C[C@H]3CC[C@H](NC(=O)c4cc(Cl)cnc4C(F)(F)F)CC3)c3ccccc32)cn1 [Example 410, 5-(3-(((1r,4r)-4-(5-chloro-2-(trifluoromethyl)nicotinamido)cyclohexyl)methyl)-2-oxo-2,3-dihydro-1H-benzo[d]imidazol-1-yl)-N-(2-fluoroethyl) picolinamide] | < 300 |
| Cc1ncc(Cl)cc1C(=O)N[C@H]1CC[C@H](Cn2c(=O)n(-c3ccc(NCC(F)(F)F)nc3)c3ccccc32)CC1 [Example 436, 5-chloro-2-methyl-N-((1r,4r)-4-((2-oxo-3-(6-((2,2,2-trifluoro-ethyl)amino)pyridin-3-yl)-2,3-dihydro-1H-benzo[d]imidazol-1-yl)methyl)cyclohexyl) nicotinamide] | < 300 |
| Cc1ncc(Cl)cc1C(=O)N[C@H]1CC[C@H](Cn2c(=O)n(-c3ccc(-c4cn[nH]c4)cc3)c3ccccc32)CC1 [Example 581, N-((1r,4r)-4-((3-(4-(1H-pyrazol-4-yl)phenyl)-2-oxo-2,3-dihydro-1H-benzo[d]imidazol-1-yl)methyl)cyclohexyl)-5-chloro-2-methylnicotinamide] | < 300 |
| Cc1ncc(Cl)cc1C(=O)N[C@H]1CC[C@H](Cn2c(=O)n(-c3ccncc3C(F)(F)F)c3ccccc32)CC1 [Example 320, 5-chloro-2-methyl-N-((1r,4r)-4-((2-oxo-3-(3-(trifluoro-methyl)pyridin-4-yl)-2,3-dihydro-1H-benzo[d]imidazol-1-yl)methyl)cyclohexyl) nicotinamide] | < 300 |
| Cc1ncc(Cl)cc1C(=O)N[C@H]1CC[C@H](Cn2c(=O)n(-c3ccnc(C)c3C)c3ccccc32)CC1 [Example 331, 5-chloro-N-((1r,4r)-4-((3-(2,3-dimethylpyridin-4-yl)-2-oxo-2,3-dihydro-1H-benzo [d]imidazol-1-yl)methyl)cyclohexyl)-2-methylnico-tinamide] | < 300 |
| Cc1ncc(Cl)cc1C(=O)N[C@H]1CC[C@H](Cn2c(=O)n(-c3cnccc3C#N)c3ccccc32)CC1 [Example 248, 5-chloro-N-((1r,4r)-4-((3-(4-cyanopyridin-3-yl)-2-oxo-2,3-dihydro-1H-benzo[d]imidazol-1-yl)methyl)cyclohexyl)-2-methylnicotinamide] | < 300 |
| CNC(=O)c1ccc(-n2c(=O)n(C[C@H]3CC[C@H](NC(=O)c4c5ccccc5nn4CC(F)(F)F)CC3)c3ccccc32)cn1 [Example 557, N-((1r,4r)-4-((3-(6-(methylcarbamoyl)pyridin-3-yl)-2-oxo-2,3-dihydro-1H-benzo[d]imidazol-1-yl)methyl)cyclohexyl)-2-(2,2,2-trifluoroethyl)-2H-indazole-3-carboxamide] | < 300 |
| COc1ccc(-n2c(=O)n(C[C@H]3CC[C@H](NC(=O)c4cc(Cl)cnc4C)CC3)c3ccccc32)cc1OC [Example 44, 5-chloro-N-((1r,4r)-4-((3-(3,4-dimethoxyphenyl)-2-oxo-2,3-dihydro-1H-benzo[d]imidazol-1-yl)methyl)cyclohexyl)-2-methylnicotinamide] | < 300 |
| Cc1ncc(Cl)cc1C(=O)N[C@H]1CC[C@H](Cn2c(=O)n(-c3cccc4nccn34)c3ccccc32)CC1 [Example 350, 5-chloro-N-((1r,4r)-4-((3-(imidazo[1,2-a]pyridin-5-yl)-2-oxo-2,3-dihydro-1H-benzo [d]imidazol-1-yl)methyl)cyclohexyl)-2-methylnico-tinamide] | < 300 |
| Cc1ncc(Cl)cc1C(=O)N[C@H]1CC[C@H](Cn2c(=O)n(-c3ccc4ccncc4c3)c3ccccc32)CC1 [Example 396, 5-chloro-N-((1r,4r)-4-((3-(isoquinolin-7-yl)-2-oxo-2,3-dihydro-1H-benzo[d]imidazol-1-yl)methyl)cyclohexyl)-2-methyl-nicotinamide] | < 300 |
| Cn1cnc2cc(-n3c(=O)n(C[C@H]4CC[C@H](NC(=O)c5cc(Cl)cnc5C(F)(F)F)CC4)c4ccccc43)ccc21 [Example 326, 5-chloro-N-((1r,4r)-4-((1′-methyl-2-oxo-1′H-[1,5′-bibenzo[d]imidazol]-3(2H)-yl)methyl)cyclohexyl)-2-(trifluoromethyl)nicotinamide] | < 300 |
| O=C(NCCF)c1ccc(-n2c(=O)n(C[C@H]3CC[C@H](NC(=O)c4cc(Cl)cnc4C(F)F)CC3)c3ccccc32)cn1 [Example 549, 5-(3-(((1r,4r)-4-(5-chloro-2-(difluoromethyl)nicotina-mido)cyclohexyl)methyl)-2-oxo-2,3-dihydro-1H-benzo[d]imidazol-1-yl)-N-(2-fluoroethyl)picolinamide] | < 300 |
| Cc1ncc(Cl)cc1C(=O)N[C@H]1CC[C@H](Cn2c(=O)n(CC(=O)c3ccc(C#N)cc3)c3ccccc32)CC1 [Example 13, 5-chloro-N-((1r,4r)-4-((3-(2-(4-cyanophenyl)-2-oxoethyl)-2-oxo-2,3-dihydro-1H-benzo[d]imidazol-1-yl)methyl)cyclohexyl)-2-methylnicotinamide] | < 300 |
| CNC(=O)c1ccc(-n2c(=O)n(C[C@H]3CC[C@H](NC(=O)c4cc(Cl)cnc4C)CC3)c3cc(C)ccc32)cn1 [Example 225, 5-(3-(((1r,4r)-4-(5-chloro-2-methylnicotinamido)cyclo-hexyl)methyl)-5-methyl-2-oxo-2,3-dihydro-1H-benzo [d]imidazol-1-yl)-N-methylpicolinamide] | < 300 |
| O=C(N[C@H]1CC[C@H](Cn2c(=O)n(-c3ccc(OC4COC4)nc3)c3ccccc32)CC1)c1cc(Cl)cnc1C(F)F [Example 478, 5-chloro-2-(difluoromethyl)-N-((1r,4r)-4-((3-(6-(oxetan-3-yloxy)pyridin-3-yl)-2-oxo-2,3-dihydro-1H-benzo[d]imidazol-1-yl)methyl)cyclohexyl)nicotinamide] | < 300 |
| CNC(=O)c1ccc(-n2c(=O)n(C[C@H]3CC[C@H](NC(=O)c4cc(Cl)cnc4C)CC3)c3cc(OC)ccc32)cn1 [Example 194, 5-(3-(((1r,4r)-4-(5-chloro-2-methylnicotinamido)cyclohexyl)methyl)-5-methoxy-2-oxo-2,3-dihydro-1H-benzo[d]imidazol-1-yl)-N-methylpicolinamide] | < 300 |
| Cc1ncc(Cl)cc1C(=O)N[C@H]1CC[C@H](Cn2c(=O)n(-c3cnc4c(cnn4C)c3)c3ccccc32)CC1 [Example 163, 5-chloro-2-methyl-N-((1r,4r)-4-((3-(1-methyl-1H-pyrazolo [3,4-b]pyridin-5-yl)-2-oxo-2,3-dihydro-1H-benzo[d]imidazol-1-yl)methyl)cyclo-hexyl)nicotinamide] | < 300 |
| CNC(=O)c1ccc(-n2c(=O)n(C[C@H]3CC[C@H](NC(=O)c4cc(Cl)cnc4CC(F)F)CC3)c3ccccc32)cn1 [Example 349, 5-(3-(((1r,4r)-4-(5-chloro-2-(2,2-difluoroethyl)nicotina-mido)cyclohexyl)methyl)-2-oxo-2,3-dihydro-1H-benzo[d]imidazol-1-yl)-N-methyl-picolinamide] | < 300 |
| O=C(N[C@H]1CC[C@H](Cn2c(=O)n(-c3ccnc(-n4ccnc4)c3)c3ccccc32)CC1)c1cc(Cl)cnc1C(F)F [Example 570, N-((1r,4r)-4-((3-(2-(1H-imidazol-1-yl)pyridin-4-yl)-2-oxo-2,3-dihydro-1H-benzo [d]imidazol-1-yl)methyl)cyclohexyl)-5-chloro-2-(difluoromethyl)nicotinamide] | < 300 |
| CC(=O)N1Cc2ccc(-n3c(=O)n(C[C@H]4CC[C@H](NC(=O)c5cc(Cl)cnc5C)CC4)c4ccccc43)cc2C1 [Example 188, N-((1r,4r)-4-((3-(2-acetylisoindolin-5-yl)-2-oxo-2,3-dihydro-1H-benzo[d]imidazol-1-yl)methyl)cyclohexyl)-5-chloro-2-methylnicotinamide] | < 300 |
| Cc1cnccc1-n1c(=O)n(C[C@H]2CC[C@H](NC(=O)c3cc(Cl)cnc3C(F)(F)F)CC2)c2ccccc21 [Example 289, 5-chloro-N-((1r,4r)-4-((3-(3-methylpyridin-4-yl)-2-oxo-2,3-dihydro-1H-benzo[d]imidazol-1-yl)methyl)cyclo-hexyl)-2-(trifluoromethyl) nicotinamide] | < 300 |
| Cn1ccc(-c2cccc(-n3c(=O)n(C[C@H]4CC[C@H](NC(=O)c5cc(Cl)cnc5C(F)F)CC4)c4ccccc43)c2)n1 [Example 700, 5-chloro-2-(difluoromethyl)-N-((1r,4r)-4-((3-(3-(1-methyl-1H-pyrazol-3-yl)phenyl)-2-oxo-2,3-dihydro-1H-benzo[d]imidazol-1-yl)methyl)cyclohexyl) nicotinamide] | < 300 |
